Measured values as given in patent publication US12281304B2, “Compositions and methods for treating and preventing muscular disorders and dystrophies, steroid side effects, and inflammation” (Children's National Medical Center, priority 2018, dated 2025).

System: miRNAs in diaphragm muscle of mdx mice
Assay: TaqMan low-density array (TLDA) miRNA profiling of diaphragm, discovery set (prophylactic mdx trial)
Assay type: in vivo, mouse
Description: Archival muscle samples (diaphragm) from two separate preclinical studies were obtained, with each trial showing a significant benefit from both prednisolone and vamorolone drug treatments (23). Prednisolone was used because it is the active form of prednisone, the current DMD standard of care. The first, “discovery set” of diaphragm muscles was from a prophylactic trial design where 2-week old (postnatal day 15) mdx or wild type control mice received oral dosing for 6 weeks with vehicle (cherry syrup), prednisolone (5 mg/kg), or vamorolone (15 mg/kg) as previously reported (23). The second, “validation set” of diaphragm muscles was from an extended trial in older mice where mdx or wild type mice were subjected to treadmill running to unmask mild phenotypes. Mice in this validation set were treated with either vehicle, prednisolone (5 mg/kg) or vamorolone (45 mg/kg) for four months beginning at two months of age (23). At the endpoint of each trial, diaphragm muscles were harvested and frozen in liquid nitrogen-cooled isopentane.
We extracted total RNA from 5 diaphragm muscles per treatment group in the discovery set of samples from 8-week old mice. RNA was extracted using a modified TRIzol protocol with isopropanol precipitation at −20° C. overnight. This RNA was reverse transcribed to cDNA using a High Capacity cDNA Reverse Transcription Kit with RNase Inhibitor (ThermoFisher; Carlsbad, Calif.), with miRNA-specific Megaplex RT Primers, Rodent Pools Set version 3.0 (ThermoFisher; Carlsbad, Calif.). Levels of each of the miRNAs were profiled in the discovery set using TAQMAN Array Rodent MiRNA A+B Cards Set v3.0 (ThermoFisher; Carlsbad, Calif.).
In the discovery set experiments, levels of each miRNA were quantified in TaqMan low-density arrays using ThermoFisher Cloud software with the Relative Quantification Application (ThermoFisher; Carlsbad, Calif.) tool. Data was analyzed by ANOVA with post-hoc comparison of each group to the mdx vehicle-treated group. […] A P-value of P≤0.05 was set as the significance threshold, without adjustment for multiple comparisons. To reduce false-positive discovery in this setting, an evidence-based approach was used to identify efficacy associated miRNAs where 1) results from the multiple groups were cross-referenced, and 2) all candidate miRNAs identified in this discovery set were then assayed in a separate validation set of mice. For the validation set experiments, levels of each individual miRNA were assayed in samples from a second, independent preclinical trial in adult mdx mice. Data from individual TaqMan Assays was quantified using QuantStudio Real-Time PCR version 1.3 software (Applied Biosystems; Foster City, Calif.). The levels of all miRNAs were normalized to the geometric mean of multiple control genes (60, 70). Comparison of groups was made by ANOVA with Holm-Sidak post-hoc test comparing each group to mdx vehicle.
To visualize behavior of miRNAs within individual mice for each group, heat map images were generated. Heat maps were generated using Rq values of TLDA array data exported from the Relative Quantification Application of the ThermoFisher Cloud software (ThermoFisher; Carlsbad, Calif.) tool. Heat maps of miRNA expression were produced using Hierarchical Clustering Explorer Version 3.5 (at www.cs.umd.edu/hcil/multi-cluster/) produced by the Human Computer Interaction Laboratory (University of Maryland; College Park, Md.).
To examine miRNA expression TaqMan low density qPCR array cards were used to profile approximately 750 miRNAs within diaphragm muscle from a discovery set of mice. Samples for this experiment came from a trial that utilized a prophylactic approach (23). Briefly, mdx mice undergo a stage of peak severity characterized by widespread inflammation and necrosis from approximately 3-8 weeks of age, followed by a recovery stage where mice show milder phenotypes (25). […]

[1] = discovery set diaphragm muscle, mdx mice, Pred 5 mg/kg, Vam 15 mg/kg
[2] = mdx diaphragm, vs untreated mdx, Pred 5 mg/kg, Vam 15 mg/kg

`C[C@@H]1C[C@H]2[C@@H]3CCC4=CC(=O)C=C[C@]4(C)C3=CC[C@]2(C)[C@@]1(O)C(=O)CO` [vamorolone] was tested, and the “miRNA 142-3p % expression in comparison to mdx vehicle” value [1] was 65 ± 20 %, the “miRNA 142-5p % expression in comparison to mdx vehicle” value [1] was 61 ± 23 % and the “miRNA 146a % expression in comparison to mdx vehicle” value [1] was 52 ± 12 %. The “miRNA 301a % expression in comparison to mdx vehicle” value [1] was 77 ± 12 %, the “miRNA 324-3p % expression in comparison to mdx vehicle” value [1] was 75 ± 13 % and the “miRNA 455-3p % expression in comparison to mdx vehicle” value [1] was 61 ± 14 %. The “miRNA 455-5p % expression in comparison to mdx vehicle” value [1] was 64 ± 15 %, the “miRNA 497 % expression in comparison to mdx vehicle” value [1] was 65 ± 11 % and the “miRNA 652 % expression in comparison to mdx vehicle” value [1] was 64 ± 18 %. For the same compound, the “number of miRNAs significantly changed in dystrophic muscle” value (mdx diaphragm, 8-week-old mice, oral dosing 6 weeks, prednisolone 5 mg/kg, vamorolone 15 mg/kg, versus untreated mdx, P≤0.05) was 41, the “number of miRNAs significantly increased by treatment” value (mdx diaphragm, discovery set, prednisolone 5 mg/kg, vamorolone 15 mg/kg, P≤0.05) was “none of the miRNAs queried in the TLDA cards were significantly increased” and the “expression of the nine efficacy-associated miRNAs elevated in dystrophy” value (mdx diaphragm, discovery set, versus mdx vehicle) was “returned towards healthy wild type levels”. For the same compound, the “Rq hsa-let-7i#-002172” value [2] was 0.939, the “Rq hsa-miR-30e-3p-000422” value [2] was 0.849 and the “Rq hsa-miR-22#-002301” value [2] was 0.78. The “Rq hsa-miR-140-3p-002234” value [2] was 0.903, the “Rq hsa-miR-143-000466” value [2] was 1.29 and the “Rq hsa-miR-154#-000478” value [2] was 0.689. The “Rq hsa-miR-190b-002263” value [2] was 0.822, the “Rq hsa-miR-200c-000505” value [2] was 0.453 and the “Rq hsa-miR-206-000510” value [2] was 0.983. The “Rq hsa-miR-213-000516” value [2] was 0.839, the “Rq hsa-miR-214#-002293” value [2] was 0.889 and the “Rq hsa-miR-214-000517” value [2] was 0.994. The “Rq hsa-miR-376a#-001287” value [2] was 0.845, the “Rq hsa-miR-455-001280” value [2] was 0.637 and the “Rq hsa-miR-744#-002325” value [2] was 0.816. For the same compound, the “Rq mmu-let-7e-002406” value [2] was 0.665, the “Rq mmu-let-7a-000377” value [2] was 0.667 and the “Rq mmu-let-7b-000378” value [2] was 0.754. The “Rq mmu-let-7c-1#-002479” value [2] was 1.038, the “Rq mmu-let-7c-000379” value [2] was 0.691 and the “Rq mmu-let-7i-002221” value [2] was 0.777. For the same compound, the “Rq mmu-let-7d#-001178” value [2] was 0.61, the “Rq mmu-let-7d-002283” value [2] was 0.789 and the “Rq mmu-miR-1-002222” value [2] was 0.897. For the same compound, the “Rq mmu-miR-15a-000389” value [2] was 0.719, the “Rq mmu-miR-16-000391” value [2] was 0.781 and the “Rq mmu-miR-18a-002422” value [2] was 1.288. The “Rq mmu-miR-19a-000395” value [2] was 0.886, the “Rq mmu-miR-20a#-002491” value [2] was 0.825 and the “Rq mmu-miR-21#-002493” value [2] was 0.647. For the same compound, the “Rq mmu-miR-21-000397” value [2] was 0.677, the “Rq mmu-miR-23b-000400” value [2] was 0.675 and the “Rq mmu-miR-25-000403” value [2] was 0.867. For the same compound, the “Rq mmu-miR-26a-000405” value [2] was 0.766, the “Rq mmu-miR-27b-000409” value [2] was 0.82 and the “Rq mmu-miR-28-000411” value [2] was 0.842. The “Rq mmu-miR-30e-002223” value [2] was 0.847, the “Rq mmu-miR-30a-000417” value [2] was 0.834 and the “Rq mmu-miR-30b-000602” value [2] was 0.855. The “Rq mmu-miR-30c-000419” value [2] was 0.818, the “Rq mmu-miR-31#-002495” value [2] was 0.821 and the “Rq mmu-miR-31-000185” value [2] was 1.032. For the same compound, the “Rq mmu-miR-34a-000426” value [2] was 0.789, the “Rq mmu-miR-34b-3p-002618” value [2] was 0.798 and the “Rq mmu-miR-34c#-002584” value [2] was 0.748. The “Rq mmu-miR-34c-000428” value [2] was 0.811, the “Rq mmu-miR-99b-000436” value [2] was 0.913 and the “Rq mmu-miR-100-000437” value [2] was 0.721. For the same compound, the “Rq mmu-miR-103-000439” value [2] was 0.628, the “Rq mmu-miR-122-002245” value [2] was 0.072 and the “Rq mmu-miR-125a-3p-002199” value [2] was 0.828. For the same compound, the “Rq mmu-miR-125b#-002508” value [2] was 0.803, the “Rq mmu-miR-125b-3p-002378” value [2] was 0.866 and the “Rq mmu-miR-125b-5p-000449” value [2] was 0.682. For the same compound, the “Rq mmu-miR-126-3p-002228” value [2] was 0.809, the “Rq mmu-miR-126-5p-000451” value [2] was 0.812 and the “Rq mmu-miR-127-000452” value [2] was 1.107. The “Rq mmu-miR-128a-002216” value [2] was 0.847, the “Rq mmu-miR-130a-000454” value [2] was 0.717 and the “Rq mmu-miR-130b#-002460” value [2] was 1.164. For the same compound, the “Rq mmu-miR-130b-000456” value [2] was 0.88, the “Rq mmu-miR-133a-002246” value [2] was 0.996 and the “Rq mmu-miR-134-001186” value [2] was 1.353. The “Rq mmu-miR-136-002511” value [2] was 0.942, the “Rq mmu-miR-138#-002554” value [2] was 0.384 and the “Rq mmu-miR-140-001187” value [2] was 0.818. The “Rq mmu-miR-142-3p-000464” value [2] was 0.626, the “Rq mmu-miR-142-5p-002248” value [2] was 0.576 and the “Rq mmu-miR-143-002249” value [2] was 0.716. For the same compound, the “Rq mmu-miR-145-002278” value [2] was 0.722, the “Rq mmu-miR-146a-000468” value [2] was 0.513 and the “Rq mmu-miR-146b#-002453” value [2] was 0.275. For the same compound, the “Rq mmu-miR-146b-001097” value [2] was 0.645, the “Rq mmu-miR-148a-000470” value [2] was 0.496 and the “Rq mmu-miR-148b-000471” value [2] was 0.568. The “Rq mmu-miR-150#-002570” value [2] was 0.293, the “Rq mmu-miR-150-000473” value [2] was 0.692 and the “Rq mmu-miR-151-3p-001190” value [2] was 0.971. The “Rq mmu-miR-152-000475” value [2] was 0.785, the “Rq mmu-miR-154-000477” value [2] was 0.898 and the “Rq mmu-miR-155-002571” value [2] was 0.876. The “Rq mmu-miR-181a-000480” value [2] was 0.773, the “Rq mmu-miR-181c-000482” value [2] was 0.71 and the “Rq mmu-miR-185-002271” value [2] was 0.886. The “Rq mmu-miR-186-002285” value [2] was 0.994, the “Rq mmu-miR-191-002299” value [2] was 0.815 and the “Rq mmu-miR-193#-002577” value [2] was 0.682. For the same compound, the “Rq mmu-miR-195-000494” value [2] was 0.669, the “Rq mmu-miR-199a-3p-002304” value [2] was 0.722 and the “Rq mmu-miR-199b-001131” value [2] was 0.667. The “Rq mmu-miR-200c-002300” value [2] was 0.577, the “Rq mmu-miR-203-000507” value [2] was 0.521 and the “Rq mmu-miR-204-000508” value [2] was 0.627. For the same compound, the “Rq mmu-miR-210-000512” value [2] was 0.746 and the “Rq mmu-miR-214-002306” value [2] was 0.842.
